# Like-named read-outs stand apart in the source and are kept apart here. Residues, ends and D or L forms follow the SMILES beside them.
# Assays:
# [1] = system: E. coli K-12 BW25113 strain (KEIO collection); type: cell-based, Escherichia coli
# Protocol: (§1) The MICs of active peptides were determined via the Broth microdilution assay according to the EUCAST guideline, which were performed in 96-well polystyrene flat-bottom microtiter plates (BD Biosciences). Briefly, a single colony was inoculated into 5 mL LB medium and grown to the end-exponential growth phase in a shaking incubator at 37° C. Cultures were subsequently diluted to an OD600 of 0.002 ([…]) in fresh LB medium. 100 μL of LB medium with different concentration of peptides ranging from 100 μg/mL to 1 μg/mL were serially diluted to the sterile 96-well plate (at least 3 wells in each plate). Afterward, 100 μL of the diluted bacteria were pipetted into 96-well plates containing different concentration of peptides. In each plate, the grown bacteria with maximum concentration of carrier and medium were considered as positive and negative controls, respectively. Thereafter, 96-well plates was statically incubated overnight at 37° C. to allow bacterial growth. A multipurpose UV/VIS plate reader at OD590 nm, 1 s shaking measured the absorbance of the growth bacteria using a Perkin Elmer spectrophotometer (1420 Multilabel Counter Victor 3).
# E. coli O157 = type: cell-based, Escherichia coli; conditions: E. coli 0157 (Table 2)
# Protocol: as §1
# [2] = Solubility of peptide after ultracentrifugation; type: physicochemical; conditions: 30 min after dissolving
# Protocol: FIG. 1: Activity, cytotoxicity and aggregation of antibacterial aggregating peptides. (A) Time-killing curve of selected peptides against E. coli strain O157 treated at MIC concentration (average and s.d. of 3 replicates). (B, C, D) Transmission electron microcopy (TEM) of cross-sections of E. coli O157 embedded in resin. B is mock treated, C is P2- and D is P105-treated E. coli O157 (2 h). […] (F) Concentration-dependent hemolysis of human erythrocytes by selected peptides (average and s.d. of 3 replicates). (G) Cytoxicity of Colpeptin1 to human HeLa cells measured by CellTiter Blue assay (average and s.d. of 3 replicates) and (H) by LDH release assay (average and s.d. of 3 replicates). […] Data are from a single experiment that was replicated 3 times (J) Histogram of the size distribution of particles calculated from the DLS data recorded of freshly dissolved colpeptin1 using a linear polymer as particle model. […] (M) Fluorescence intensity of the amyloid-specific dye pFTAA added to preparation of colpeptin1, normalised to the intensity observed with amyloid fibrils of the Alzheimer beta-peptide at the same concentration in monomeric units (average and s.d. of 3 replicates). […] (0) Aggregation kinetics of Colpeptin1 monitored by pFTAA fluorescence in the presence of 1 mM hexaphosphate (average and s.d. of 4 replicates). […]
# In vivo toxicity test = test: In vivo toxicity test; design: species or system Swiss mice
# Protocol: The procedures used in the assays were approved by the local Animal Ethical Committee and conform to international standards of animal welfare (Approval P067/2015 of the Ethical Committee of KU Leuven). […] Briefly, 5-6 week-old Swiss females were divided into […] (6 animals/group) and administered 30 mg/kg of Colpeptin1 (group A) or vehicle (physiological water pH 7.5) (group b) once a day for 18 days via IP injection. During the treatment period the clinical, physiological and behavioral parameters including body weight, food and water consumption, body condition score, home cage activity and locomotion were constantly monitored and recorded.
# Three days after the last administration animals were anesthetized and blood was collected using a standard retro-orbital puncture from each animal. Next, the mice sacrificed and underwent complete necropsy with gross examination and organ weights. The organs (Heart, Liver, Spleen, kidney, bone marrow, Brain, Lung) were sampled and immersion fixed in 4% paraformaldehyde. Formalin-fixed tissues after dehydration were routinely processed and embedded in paraffin blocks for histopathological examination. 5 μm thick sections taken from these blocks (Thermo Scientific Microm HM355S microtome) were then stained with Hematoxylin and Eosin (Leica ST5010 Autostainer XL) and evaluated under a Leica DM 2500 light microscope by a board-certified veterinary pathologist. Hematology examination was performed using an automate high-resolution flow cytometer, Abbott Cell-Dyn 3700.
# [3] = mice, 30 mg/kg, 18 consecutive days injection
# [4] = mice, 18 consecutive days of injection, Mean ± SD
structure (smiles),measurement,setting,value
CC(C)C[C@H](NC(=O)CNC(=O)[C@H](CCCNC(=N)N)NC(=O)[C@@H]1CCCN1C(=O)[C@H](CCCNC(=N)N)NC(=O)[C@H](CCCNC(=N)N)NC(=O)[C@@H](NC(=O)[C@H](CC(C)C)NC(=O)[C@H](C)NC(=O)[C@H](CC(C)C)NC(=O)CNC(=O)[C@H](CC(C)C)NC(=O)CNC(=O)[C@@H](N)CCCNC(=N)N)C(C)C)C(=O)NCC(=O)N[C@@H](CC(C)C)C(=O)N[C@@H](C)C(=O)N[C@@H](CC(C)C)C(=O)N[C@H](C(=O)N[C@@H](CCCNC(=N)N)C(=O)N[C@@H](CCCNC(=N)N)C(=O)O)C(C)C [Peptide P2] (H-RGLGLALVRRPRGLGLALVRR-OH),MIC,[1]; KEIO WT,12 µg/mL
same,MIC,[1]; Δ Clp A,12 µg/mL
same,MIC,[1]; Δ Clp B,12 µg/mL
same,MIC,[1]; Δ Clp P,12 µg/mL
same,MIC,[1]; Δ Clp S,12 µg/mL
same,MIC,[1]; Δ Clp X,12 µg/mL
same,MIC,[1]; Δ Dan J,12 µg/mL
same,MIC,[1]; Δ Dan K,6 µg/mL
same,MIC,[1]; Δ gro L,12 µg/mL
same,MIC,[1]; Δ htp G,12 µg/mL
same,MIC,E. coli O157,6 µg/mL
same,peptide remaining in solution,[2],less than 60%
same,adverse effects on repeated dosing,"In vivo toxicity test; 6 mice, daily injections at the maximum tolerated dose for 18 days",without any apparent adverse effects
same,"acute adverse effects, dose escalation","In vivo toxicity test; Swiss mice, intraperitoneal administration of up to 30 mg/kg",no acute adverse effects
same,survey of the major organs,In vivo toxicity test; after 18 days dosing and 3 days recovery,no major morphological signs of toxicity
same,Organs weights: Brain,In vivo toxicity test; [3],0.56 ± 0.02 gr
same,Organs weights: Heart,In vivo toxicity test; [3],0.20 ± 0.02 gr
same,Organs weights: Kidneys,In vivo toxicity test; [3],0.58 ± 0.01 gr
same,Organs weights: Liver,In vivo toxicity test; [3],1.90 ± 0.11 gr
same,Organs weights: Spleen,In vivo toxicity test; [3],0.12 ± 0.01 gr
same,"BASO, Basophil absolute count",In vivo toxicity test; [4],0.24 ± 0.02
same,"EOS, Eosinophil absolute count",In vivo toxicity test; [4],0.14 ± 0.06
same,"HCT, Hematocrit",In vivo toxicity test; [4],98.87 ± 3.7
same,"HGB, Hemoglobin concentration",In vivo toxicity test; [4],17.8 ± 0.45
same,"LYM, Lymphocyte absolute count",In vivo toxicity test; [4],5.32 ± 0.52
same,"MCH, Mean Corpuscular Hemoglobin",In vivo toxicity test; [4],48.2 ± 0.34
same,"MCHC, Mean Corpuscular Hemoglobin Concentration",In vivo toxicity test; [4],53.7 ± 0.42
same,"MCV, Mean Corpuscular Volume",In vivo toxicity test; [4],273 ± 1.32
same,"MONO, Monocyte absolute count",In vivo toxicity test; [4],0.15 ± 0.05
same,"MPV, Mean Platelet Volume",In vivo toxicity test; [4],16.36 ± 0.2
same,"NEU, Neutrophil absolute count",In vivo toxicity test; [4],0.80 ± 0.06
same,"PCT, Plateletcrit",In vivo toxicity test; [4],0.88 ± 0.05
same,"PDW, Platelet Distribution Width",In vivo toxicity test; [4],49.9 ± 0.43
same,"PLT, Platelet or Thrombocyte count",In vivo toxicity test; [4],1595 ± 50.7
same,"RBC, Red Blood Cell or Erythrocyte count",In vivo toxicity test; [4],10.9 ± 0.46
same,"WBC, White Blood Cell or Leukocyte count",In vivo toxicity test; [4],6.89 ± 0.42
same,MTD,"In vivo toxicity test; mouse, in vivo, ip, Swiss mice, intraperitoneal, read-out: safe concentration from escalation experiment",30 mg/kg
